# Test results taken from patent publication US20250339443A1, “METHOD FOR TREATING OR PREVENTING CALCIUM RELEASE-ACTIVATED CALCIUM CHANNEL OR DISCOIDIN DOMAIN RECEPTOR 2 RELATED DISORDERS OR CONDITIONS” (LumiSTAR Biotechnology, Inc., priority 2023, published 2025).
# Test system: obstruction-induced persistent progression of renal fibrosis
# Assay: Reversible unilateral ureteral obstruction (RUUO) model
# Type: in vivo, mouse
# Source text: FIG. 6A illustrates a diagram depicting the timeline of operations and drug delivery. The left ureter was surgically ligated (UUO-L) for 7 days, after which it was re-connected to the bladder (RUUO-L). Various compounds, including DMSO (control), WRG-28, and Av, were intraperitoneally injected daily during ureter ligation (UUO-L) period. After following RUUO-L for an additional 13 days, the right ureter was ligated (UUO-R). Subsequently, mice were housed in metabolic cages on the day after surgery (day 21). On day 22, the left kidneys were removed for further analysis to evaluate kidney function. […] FIG. 6C illustrates the measurement of the Sirius red-positive area in each group, conducted by using Image J from 5-10 images. The protein levels of integrin β1, collagen 1a1, DDR2, α-SMA, E-cadherin, SGLT2, NHE1, and β-actin were assessed in mice treated with WRG-28 (FIG. 6D) and Av (FIG. 6F) using Western blot analysis. Relative protein levels were quantified using Image J (FIG. 6E and FIG. 6G). Each bar represents mean±SEM. In all the graphs, *, **, and *** denote p-values of <0.05, 0.01, and 0.001, respectively.
# The left ureter was surgically ligated (UUO-L) for 7 days, after which it was re-connected to the bladder (RUUO-L). Various compounds, including DMSO (control), WRG-28, and Av were intraperitoneally injected for 13 days after the release of left ureter ligation (during RUUO-L period). After 13 days of RUUO-L, the right ureter was ligated (UUO-R). Subsequently, the mice were housed in metabolic cages on the following day of surgery (day 21). On day 22, the left kidneys were removed for further analysis. […] FIG. 7C illustrates the measurement of the Sirius red-positive area in each group using Image J from 5-10 images. The protein levels of integrin β1, collagen 1a1, DDR2, […] were assessed in mice treated with WRG-28 (FIG. 7D) and Av (FIG. 7F) using Western blot analysis. The relative protein levels were measured and quantified using Image J (FIG. 7E and FIG. 7G). Each bar represents the mean±SEM. In all the graphs, *, **, and *** denote p-values of <0.05, 0.01, and 0.001, respectively. NS denotes a p-value >0.05, indicating no significant difference between the two groups.
# FIG. 8A, FIG. 8B, FIG. 8C, FIG. 8D, FIG. 8E, FIG. 8F, FIG. 8G, and FIG. 8H illustrate how WRG-28 and Av restore epithelial differentiation and reduce collagen deposition and myofibroblast expansion in RUUO-induced persistent progression of renal fibrosis. The frozen tissue blocks were utilized for immunofluorescence staining. […] Laminin alpha 1 and collagen 1a1 were detected using primary antibodies, followed by secondary antibodies conjugated with Alexa-488 (green) and Alexa-594 (red), respectively. Hoechst 33258 (blue) was used for labeling nuclei. FIG. 8A-(ii) illustrates the fluorescent intensity of collagen 1a1 measured using Image J. Analysis was conducted on 5-10 areas from each of the 5 pictures, with each bar representing the mean±SEM. In FIG. 8A-(i), the thickness of laminin alpha 1 was measured using Image J by analyzing 5-10 areas from each of the 5-10 pictures. The median is marked by a solid line, while the quartiles are indicated by dotted lines. […] FIG. 8B-(iii) illustrates the fluorescent intensity of α-SMA, measured using Image J. Quantification was conducted on at least 5 areas from each of the 5 pictures, with each bar representing the mean±SEM. […] Additionally, Hoechst 33258 (blue) was used for labeling nuclei. FIG. 8C-(iv) illustrates the quantification of apical membrane expression of SGLT2 in SGLT2 positive cells for each condition. Analysis was conducted on at least 5 pictures from each condition, with each bar representing the mean±SEM. […] Hoechst 33258 (blue) was used to label nuclei. The expressions of DDR2 (FIG. 8D-(v)) and AQP1 (FIG. 8D-(vi)) were analyzed and quantified based on 5-8 pictures from each condition. Each bar in the figures represents the mean±SEM. […]
# [1] = serum, compared to DMSO-treated mice, 7*/15d or 7/15*d
# [2] = treated after release of obstruction (7/15*d), Western blot
# [3] = treated after the obstruction was released (7/15*d)
# [4] = treated during obstruction (7*/15d)
# [5] = treated during obstruction (7*/15d), Western blot
compound,measurement,setting,value
CCNS(=O)(=O)c1ccc(COc2ccc3nc4ccc(=O)cc-4oc3c2)cc1 [WRG-28],expression of DDR2 (immunofluorescence),"RUUO, compared to the DMSO-treated group",reduced
same,apical membrane expression of SGLT-2,"RUUO, immunofluorescence",reversed
same,atrophic tubules,"RUUO, immunofluorescence",fewer
same,accumulation of collagen 1a1 (immunofluorescence),"RUUO, vs DMSO treated group",mitigated
same,expression of α-SMA (immunofluorescence),"RUUO, vs DMSO treated group",markedly reduced
same,level of BUN,[1],significantly reduced
same,level of CRE,[1],significantly reduced
same,kidney histology (H&E),treated 7 days during ureter obstruction (7*/15d),preserved the intact tubular structure
same,kidney histology (H&E) compared to DMSO-treated mice,treated 13 days after release of obstruction (7/15*d),"numerous intact tubular structures, less inflammation and scar tissue"
same,collagen-positive area (Sirius red),treated after release of obstruction (7/15*d),reduced
same,"downregulation of epithelial marker proteins, E-cadherin, SGLT2 and NHE1",[2],only partially reversed
same,"obstruction-induced upregulation of integrin β1, DDR2, collagen 1a1, and α-SMA",[2],alleviated
same,number of apoptotic cells (TUNEL-positive cells),[3],significantly reduced
same,numbers of proliferating tubular cells (Ki67-positive cells),[3],increased
same,"expansion of the fibrotic area (collagen-positive area, Sirius red)",[4],significantly reduced
same,numbers of proliferating tubular cells (Ki67-positive),[4],did not significantly differ
same,proliferating interstitial cells (Ki67),[4],more proliferating interstitial cells in DMSO treated mice
same,"expression of epithelial markers (E-cadherin, SGLT2, NHE1)",[5],significant increase
same,"expression of mesenchymal marker proteins (integrin β1, DDR2, collagen 1a1, α-SMA)",[5],significantly reduced
same,apoptotic (TUNEL-positive) tubular cells,"treated during obstruction, obstruction released for 15 days (7*/15d)",only a few
same,width of the basement membrane (laminin alpha 1 thickness),"treated during the obstruction (7*/15d) or after its release (7/15*d), immunofluorescence",uniform and unchanging width
